The kinase profiling compilation of Christmann-Franck et al. (2016)

How the values were obtained:
Assay in all cases: KINOMEscan competition binding
Settings in all cases: compound 10.0 µM
[1] = molecular target: ACVR1 (human) (UniProt Q04771)
[2] = molecular target: ACVRL1 (human) (UniProt P37023)
[3] = molecular target: AKT1 (human) (UniProt P31749)
[4] = molecular target: AURKB (human) (UniProt Q96GD4)
[5] = molecular target: CAMK2G (human) (UniProt Q13555)
[6] = molecular target: CDC42BPA (human) (UniProt Q5VT25)
[7] = molecular target: CDC42BPG (human) (UniProt Q6DT37)
[8] = molecular target: CDK13 (human) (UniProt Q14004)
[9] = molecular target: CLK1 (human) (UniProt P49759)
CLK1 (human), sequence (P49759 whole entry, looked up): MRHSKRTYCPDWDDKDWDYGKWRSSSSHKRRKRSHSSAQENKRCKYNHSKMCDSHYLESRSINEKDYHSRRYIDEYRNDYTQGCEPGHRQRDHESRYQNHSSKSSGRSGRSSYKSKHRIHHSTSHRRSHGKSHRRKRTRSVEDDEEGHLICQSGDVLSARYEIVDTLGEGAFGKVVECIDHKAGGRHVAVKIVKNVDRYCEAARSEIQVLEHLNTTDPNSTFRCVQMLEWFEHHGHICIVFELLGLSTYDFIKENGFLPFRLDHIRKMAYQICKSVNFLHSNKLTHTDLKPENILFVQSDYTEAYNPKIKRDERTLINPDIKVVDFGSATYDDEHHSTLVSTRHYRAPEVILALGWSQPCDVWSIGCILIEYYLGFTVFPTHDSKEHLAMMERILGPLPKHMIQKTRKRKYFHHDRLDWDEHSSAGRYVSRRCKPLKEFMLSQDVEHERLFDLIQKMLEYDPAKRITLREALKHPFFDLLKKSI

[10] = molecular target: CLK2 (human) (UniProt P49760)
[11] = molecular target: CSNK1A1 (human) (UniProt P48729)
[12] = molecular target: CSNK1E (human) (UniProt P49674)
CSNK1E (human), sequence (P49674 whole entry, looked up): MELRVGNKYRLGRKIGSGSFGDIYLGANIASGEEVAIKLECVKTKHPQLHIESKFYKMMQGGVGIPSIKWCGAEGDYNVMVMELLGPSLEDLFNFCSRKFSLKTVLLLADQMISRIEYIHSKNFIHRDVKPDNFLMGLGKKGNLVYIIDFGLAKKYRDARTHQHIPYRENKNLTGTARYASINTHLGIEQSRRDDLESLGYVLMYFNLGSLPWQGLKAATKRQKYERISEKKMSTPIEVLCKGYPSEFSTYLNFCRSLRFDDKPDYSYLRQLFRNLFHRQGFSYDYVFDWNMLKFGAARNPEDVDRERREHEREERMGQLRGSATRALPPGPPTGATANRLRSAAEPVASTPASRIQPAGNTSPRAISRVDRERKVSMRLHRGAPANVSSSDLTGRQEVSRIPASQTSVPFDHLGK

[13] = molecular target: CSNK1G2 (human) (UniProt P78368)
CSNK1G2 (human), sequence (P78368 whole entry, looked up): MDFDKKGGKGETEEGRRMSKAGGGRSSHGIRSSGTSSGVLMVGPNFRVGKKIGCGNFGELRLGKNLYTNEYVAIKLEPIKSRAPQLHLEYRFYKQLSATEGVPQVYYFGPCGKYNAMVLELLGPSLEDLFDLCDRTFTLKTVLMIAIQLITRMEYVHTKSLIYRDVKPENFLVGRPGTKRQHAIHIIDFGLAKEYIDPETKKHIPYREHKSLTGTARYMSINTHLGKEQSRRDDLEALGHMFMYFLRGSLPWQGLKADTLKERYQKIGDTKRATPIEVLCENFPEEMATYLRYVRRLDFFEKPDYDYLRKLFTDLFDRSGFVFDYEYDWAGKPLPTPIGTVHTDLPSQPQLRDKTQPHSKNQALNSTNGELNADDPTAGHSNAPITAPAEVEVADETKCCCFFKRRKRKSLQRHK

[14] = molecular target: DYRK1A (human) (UniProt Q13627)
[15] = molecular target: EPHA6 (human) (UniProt Q9UF33)
[16] = molecular target: EPHB1 (human) (UniProt P54762)
[17] = molecular target: GRK1 (human) (UniProt Q15835)
[18] = molecular target: GRK7 (human) (UniProt Q8WTQ7)
[19] = molecular target: IKBKE (human) (UniProt Q14164)
[20] = molecular target: LCK (human) (UniProt P06239)
[21] = molecular target: MAP2K6 (human) (UniProt P52564)
MAP2K6 (human), sequence (P52564 whole entry, looked up): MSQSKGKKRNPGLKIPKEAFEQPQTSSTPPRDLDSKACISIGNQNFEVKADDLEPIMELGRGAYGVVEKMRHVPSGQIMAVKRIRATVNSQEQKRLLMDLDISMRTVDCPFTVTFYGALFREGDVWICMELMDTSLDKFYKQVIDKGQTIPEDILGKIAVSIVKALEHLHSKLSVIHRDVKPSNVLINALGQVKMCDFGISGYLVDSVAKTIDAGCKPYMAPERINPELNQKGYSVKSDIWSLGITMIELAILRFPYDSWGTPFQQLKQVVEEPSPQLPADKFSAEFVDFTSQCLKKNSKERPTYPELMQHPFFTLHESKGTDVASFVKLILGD

[22] = molecular target: MAP3K11 (human) (UniProt Q16584)
[23] = molecular target: MAP3K12 (human) (UniProt Q12852)
[24] = molecular target: MAP4K1 (human) (UniProt Q92918)
MAP4K1 (human), sequence (Q92918 whole entry, looked up): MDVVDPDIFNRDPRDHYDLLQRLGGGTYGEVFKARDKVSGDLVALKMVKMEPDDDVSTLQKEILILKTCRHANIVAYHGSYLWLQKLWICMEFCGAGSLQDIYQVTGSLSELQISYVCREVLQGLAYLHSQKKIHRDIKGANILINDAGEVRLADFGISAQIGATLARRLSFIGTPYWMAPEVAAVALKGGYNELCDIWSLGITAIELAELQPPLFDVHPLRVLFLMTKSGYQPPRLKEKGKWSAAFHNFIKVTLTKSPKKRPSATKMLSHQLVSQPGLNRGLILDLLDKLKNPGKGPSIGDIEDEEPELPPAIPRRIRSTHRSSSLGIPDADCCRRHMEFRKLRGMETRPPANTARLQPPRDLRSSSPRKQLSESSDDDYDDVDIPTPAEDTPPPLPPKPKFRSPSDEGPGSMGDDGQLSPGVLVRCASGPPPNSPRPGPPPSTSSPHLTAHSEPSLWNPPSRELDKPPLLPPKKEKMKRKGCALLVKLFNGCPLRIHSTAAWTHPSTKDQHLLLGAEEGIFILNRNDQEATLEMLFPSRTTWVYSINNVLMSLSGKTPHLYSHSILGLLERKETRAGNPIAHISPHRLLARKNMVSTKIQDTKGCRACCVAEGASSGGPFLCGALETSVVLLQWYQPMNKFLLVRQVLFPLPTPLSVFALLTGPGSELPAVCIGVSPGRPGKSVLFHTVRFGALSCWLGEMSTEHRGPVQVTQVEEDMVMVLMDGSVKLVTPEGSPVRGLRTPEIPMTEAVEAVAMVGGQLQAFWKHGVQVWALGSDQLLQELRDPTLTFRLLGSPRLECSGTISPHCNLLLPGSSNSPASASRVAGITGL

[25] = molecular target: MAP4K3 (human) (UniProt Q8IVH8)
MAP4K3 (human), sequence (Q8IVH8 whole entry, looked up): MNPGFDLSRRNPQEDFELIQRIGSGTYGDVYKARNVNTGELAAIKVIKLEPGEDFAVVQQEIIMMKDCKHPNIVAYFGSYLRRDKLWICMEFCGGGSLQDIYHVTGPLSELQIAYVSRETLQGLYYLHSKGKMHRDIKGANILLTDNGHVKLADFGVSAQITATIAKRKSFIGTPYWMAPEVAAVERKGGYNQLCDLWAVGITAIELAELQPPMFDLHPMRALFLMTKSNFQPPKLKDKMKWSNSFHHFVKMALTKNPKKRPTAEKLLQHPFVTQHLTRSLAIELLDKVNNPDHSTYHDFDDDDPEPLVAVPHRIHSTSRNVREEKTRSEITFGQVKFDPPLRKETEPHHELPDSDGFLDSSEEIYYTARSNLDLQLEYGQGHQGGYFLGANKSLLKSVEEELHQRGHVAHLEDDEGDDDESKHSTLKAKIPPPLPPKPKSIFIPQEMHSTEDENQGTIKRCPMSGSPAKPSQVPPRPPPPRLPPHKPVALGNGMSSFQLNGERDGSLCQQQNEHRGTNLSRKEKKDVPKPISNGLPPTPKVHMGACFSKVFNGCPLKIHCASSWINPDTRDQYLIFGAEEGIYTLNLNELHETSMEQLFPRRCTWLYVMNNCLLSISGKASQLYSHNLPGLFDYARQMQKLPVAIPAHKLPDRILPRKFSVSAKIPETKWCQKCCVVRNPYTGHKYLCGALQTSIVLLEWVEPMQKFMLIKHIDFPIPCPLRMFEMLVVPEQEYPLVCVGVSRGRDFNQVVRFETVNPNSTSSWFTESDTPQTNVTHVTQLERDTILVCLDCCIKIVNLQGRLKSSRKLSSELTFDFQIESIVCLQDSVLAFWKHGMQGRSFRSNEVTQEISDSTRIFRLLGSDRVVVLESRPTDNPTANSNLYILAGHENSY

[26] = molecular target: MAPK7 (human) (UniProt Q13164)
[27] = molecular target: MAPKAPK2 (human) (UniProt P49137)
[28] = molecular target: MAPKAPK5 (human) (UniProt Q8IW41)
MAPKAPK5 (human), sequence (Q8IW41 whole entry, looked up): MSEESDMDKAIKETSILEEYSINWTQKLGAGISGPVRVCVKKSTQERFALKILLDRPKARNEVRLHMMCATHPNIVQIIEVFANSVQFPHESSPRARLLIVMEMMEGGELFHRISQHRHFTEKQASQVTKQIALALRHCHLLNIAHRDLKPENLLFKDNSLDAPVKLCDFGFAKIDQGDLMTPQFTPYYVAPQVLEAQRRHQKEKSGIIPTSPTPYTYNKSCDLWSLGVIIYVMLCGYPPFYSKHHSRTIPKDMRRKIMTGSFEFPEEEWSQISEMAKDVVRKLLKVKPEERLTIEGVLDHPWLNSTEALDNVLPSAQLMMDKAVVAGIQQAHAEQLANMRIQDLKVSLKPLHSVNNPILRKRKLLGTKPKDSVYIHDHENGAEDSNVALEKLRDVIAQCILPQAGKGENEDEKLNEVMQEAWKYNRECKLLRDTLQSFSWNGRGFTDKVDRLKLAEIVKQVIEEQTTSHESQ

[29] = molecular target: MARK1 (human) (UniProt Q9P0L2)
MARK1 (human), sequence (Q9P0L2 whole entry, looked up): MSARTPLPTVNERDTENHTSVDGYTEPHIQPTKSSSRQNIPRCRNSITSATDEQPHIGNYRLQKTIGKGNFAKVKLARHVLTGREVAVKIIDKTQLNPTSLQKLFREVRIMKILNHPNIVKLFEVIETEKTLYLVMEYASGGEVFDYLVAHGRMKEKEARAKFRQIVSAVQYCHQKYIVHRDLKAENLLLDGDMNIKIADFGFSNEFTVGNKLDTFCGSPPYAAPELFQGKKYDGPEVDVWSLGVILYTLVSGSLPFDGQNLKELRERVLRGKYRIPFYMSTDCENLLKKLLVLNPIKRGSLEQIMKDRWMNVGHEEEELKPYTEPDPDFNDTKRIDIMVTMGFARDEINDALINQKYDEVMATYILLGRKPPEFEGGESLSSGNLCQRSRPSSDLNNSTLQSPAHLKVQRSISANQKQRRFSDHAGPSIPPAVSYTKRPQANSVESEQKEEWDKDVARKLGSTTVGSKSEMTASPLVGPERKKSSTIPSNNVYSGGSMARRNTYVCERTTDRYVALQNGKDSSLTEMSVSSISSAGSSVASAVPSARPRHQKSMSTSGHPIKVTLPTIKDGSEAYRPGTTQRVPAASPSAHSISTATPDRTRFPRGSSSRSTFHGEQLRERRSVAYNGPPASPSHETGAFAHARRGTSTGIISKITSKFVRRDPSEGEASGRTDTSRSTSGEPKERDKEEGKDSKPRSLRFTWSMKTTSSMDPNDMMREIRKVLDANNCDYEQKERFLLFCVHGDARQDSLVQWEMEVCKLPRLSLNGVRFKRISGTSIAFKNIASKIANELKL

[30] = molecular target: MTOR (human) (UniProt P42345)
[31] = molecular target: NIM1 (human) (UniProt Q8IY84)
[32] = molecular target: PIK3C2B (human) (UniProt O00750)
[33] = molecular target: PIK3CB (human) (UniProt P42338)
[34] = molecular target: PRKG2 (human) (UniProt Q13237)
[35] = molecular target: STK17A (human) (UniProt Q9UEE5)
[36] = molecular target: TIE1 (human) (UniProt P35590)
[37] = tested on: FLT3 (human), P36888 [R834Q]
[38] = molecular target: STK25 (human) (UniProt O00506)
[39] = tested on: EGFR (human), P00533 [T790M/L858R]

AURKB (human), sequence (Q96GD4 whole entry, looked up): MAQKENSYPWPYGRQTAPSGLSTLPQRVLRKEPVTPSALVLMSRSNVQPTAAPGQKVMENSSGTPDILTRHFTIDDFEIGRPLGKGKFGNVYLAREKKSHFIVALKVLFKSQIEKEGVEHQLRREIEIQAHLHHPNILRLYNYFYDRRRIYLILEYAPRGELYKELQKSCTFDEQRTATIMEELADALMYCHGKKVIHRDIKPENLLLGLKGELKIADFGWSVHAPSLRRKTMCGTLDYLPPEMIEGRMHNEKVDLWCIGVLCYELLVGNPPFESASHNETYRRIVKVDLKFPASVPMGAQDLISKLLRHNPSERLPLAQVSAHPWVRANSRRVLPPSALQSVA

## COc1cc2ncn(-c3cc(OCc4ccccc4C(F)(F)F)c(C(N)=O)s3)c2cc1OC
[1]
  kinase still bound, per cent of control: 60%
[2]
  kinase still bound, per cent of control: 100%
[3]
  kinase still bound, per cent of control: 100%
[4]
  kinase still bound, per cent of control: 34%
[5]
  kinase still bound, per cent of control: 83%
[6]
  kinase still bound, per cent of control: 68%
[7]
  kinase still bound, per cent of control: 64%
[8]
  kinase still bound, per cent of control: 76%
[9]
  kinase still bound, per cent of control: 36%
[10]
  kinase still bound, per cent of control: 47%
[11]
  kinase still bound, per cent of control: 60%
[12]
  kinase still bound, per cent of control: 77%
[13]
  kinase still bound, per cent of control: 100%
[14]
  kinase still bound, per cent of control: 75%
[15]
  kinase still bound, per cent of control: 59%
[16]
  kinase still bound, per cent of control: 96%
[17]
  kinase still bound, per cent of control: 96%
[18]
  kinase still bound, per cent of control: 52%
[19]
  kinase still bound, per cent of control: 60%
[20]
  kinase still bound, per cent of control: 34%
[21]
  kinase still bound, per cent of control: 85%
[22]
  kinase still bound, per cent of control: 81%
[23]
  kinase still bound, per cent of control: 68%
[24]
  kinase still bound, per cent of control: 44%
[25]
  kinase still bound, per cent of control: 32%
[26]
  kinase still bound, per cent of control: 100%
[27]
  kinase still bound, per cent of control: 100%
[28]
  kinase still bound, per cent of control: 91%
[29]
  kinase still bound, per cent of control: 82%
[30]
  kinase still bound, per cent of control: 78%
[31]
  kinase still bound, per cent of control: 88%
[32]
  kinase still bound, per cent of control: 63%
[33]
  kinase still bound, per cent of control: 54%
[34]
  kinase still bound, per cent of control: 86%
[35]
  kinase still bound, per cent of control: 100%
[36]
  kinase still bound, per cent of control: 31%

## C[C@@H](Oc1cc(-c2cnn(C3CCNCC3)c2)cnc1N)c1c(Cl)ccc(F)c1Cl
[1]
  kinase still bound, per cent of control: 0.6%
[2]
  kinase still bound, per cent of control: 45%
[3]
  kinase still bound, per cent of control: 100%
[5]
  kinase still bound, per cent of control: 100%
[6]
  kinase still bound, per cent of control: 43%
[7]
  kinase still bound, per cent of control: 48%
[8]
  kinase still bound, per cent of control: 24%
[9]
  kinase still bound, per cent of control: 84%
[10]
  kinase still bound, per cent of control: 68%
[11]
  kinase still bound, per cent of control: 61%
[12]
  kinase still bound, per cent of control: 100%
[13]
  kinase still bound, per cent of control: 100%
[14]
  kinase still bound, per cent of control: 100%
[15]
  kinase still bound, per cent of control: 0.7%
[16]
  kinase still bound, per cent of control: 0.15%
[37]
  kinase still bound, per cent of control: 25%
[17]
  kinase still bound, per cent of control: 92%
[18]
  kinase still bound, per cent of control: 42%
[19]
  kinase still bound, per cent of control: 60%
[20]
  kinase still bound, per cent of control: 0.15%
[21]
  kinase still bound, per cent of control: 54%
[22]
  kinase still bound, per cent of control: 81%
[23]
  kinase still bound, per cent of control: 9%
[24]
  kinase still bound, per cent of control: 4.6%
[26]
  kinase still bound, per cent of control: 0.1%
[27]
  kinase still bound, per cent of control: 100%
[28]
  kinase still bound, per cent of control: 68%
[29]
  kinase still bound, per cent of control: 36%
[30]
  kinase still bound, per cent of control: 100%
[31]
  kinase still bound, per cent of control: 12%
[32]
  kinase still bound, per cent of control: 46%
[33]
  kinase still bound, per cent of control: 99%
[34]
  kinase still bound, per cent of control: 89%
[35]
  kinase still bound, per cent of control: 100%
[38]
  kinase still bound, per cent of control: 65%

## COc1cc(N2CCN(C)CC2)ccc1Nc1ncc2c(n1)N(C)c1ccccc1C(=O)N2C
[1]
  kinase still bound, per cent of control: 100%
[2]
  kinase still bound, per cent of control: 100%
[3]
  kinase still bound, per cent of control: 100%
[4]
  kinase still bound, per cent of control: 100%
[5]
  kinase still bound, per cent of control: 31%
[6]
  kinase still bound, per cent of control: 100%
[7]
  kinase still bound, per cent of control: 100%
[9]
  kinase still bound, per cent of control: 100%
[10]
  kinase still bound, per cent of control: 100%
[12]
  kinase still bound, per cent of control: 100%
[13]
  kinase still bound, per cent of control: 100%
[14]
  kinase still bound, per cent of control: 100%
[39]
  kinase still bound, per cent of control: 100%
[15]
  kinase still bound, per cent of control: 100%
[16]
  kinase still bound, per cent of control: 100%
[17]
  kinase still bound, per cent of control: 100%
[18]
  kinase still bound, per cent of control: 100%
[19]
  kinase still bound, per cent of control: 100%
[20]
  kinase still bound, per cent of control: 100%
[21]
  kinase still bound, per cent of control: 100%
[22]
  kinase still bound, per cent of control: 100%
[23]
  kinase still bound, per cent of control: 100%
[24]
  kinase still bound, per cent of control: 100%
[25]
  kinase still bound, per cent of control: 100%
[26]
  kinase still bound, per cent of control: 0%
[27]
  kinase still bound, per cent of control: 100%
[28]
  kinase still bound, per cent of control: 100%
[29]
  kinase still bound, per cent of control: 100%
[31]
  kinase still bound, per cent of control: 100%
[32]
  kinase still bound, per cent of control: 100%
[33]
  kinase still bound, per cent of control: 100%
[34]
  kinase still bound, per cent of control: 100%
[35]
  kinase still bound, per cent of control: 100%
[38]
  kinase still bound, per cent of control: 100%
[36]
  kinase still bound, per cent of control: 100%

## CCN(CC)CCCCNc1ncc2c(n1)N(C)C(=O)N(c1c(Cl)c(OC)cc(OC)c1Cl)C2
[1]
  kinase still bound, per cent of control: 100%
[2]
  kinase still bound, per cent of control: 100%
[3]
  kinase still bound, per cent of control: 100%
[4]
  kinase still bound, per cent of control: 100%
[5]
  kinase still bound, per cent of control: 100%
[6]
  kinase still bound, per cent of control: 100%
[7]
  kinase still bound, per cent of control: 100%
[9]
  kinase still bound, per cent of control: 100%
[10]
  kinase still bound, per cent of control: 100%
[12]
  kinase still bound, per cent of control: 100%
[13]
  kinase still bound, per cent of control: 100%
[14]
  kinase still bound, per cent of control: 100%
[39]
  kinase still bound, per cent of control: 100%
[15]
  kinase still bound, per cent of control: 100%
[16]
  kinase still bound, per cent of control: 100%
[17]
  kinase still bound, per cent of control: 100%
[18]
  kinase still bound, per cent of control: 100%
[19]
  kinase still bound, per cent of control: 100%
[20]
  kinase still bound, per cent of control: 3%
[21]
  kinase still bound, per cent of control: 100%
[22]
  kinase still bound, per cent of control: 100%
[23]
  kinase still bound, per cent of control: 100%
[24]
  kinase still bound, per cent of control: 100%
[25]
  kinase still bound, per cent of control: 100%
[26]
  kinase still bound, per cent of control: 4.1%
[27]
  kinase still bound, per cent of control: 100%
[28]
  kinase still bound, per cent of control: 100%
[29]
  kinase still bound, per cent of control: 100%
[31]
  kinase still bound, per cent of control: 100%
[32]
  kinase still bound, per cent of control: 100%
[33]
  kinase still bound, per cent of control: 100%
[34]
  kinase still bound, per cent of control: 100%
[35]
  kinase still bound, per cent of control: 100%
[38]
  kinase still bound, per cent of control: 100%
[36]
  kinase still bound, per cent of control: 10%
